Test results as given in BindingDB's records for doi:10.1021/jm00026a002 (Upjohn, 1995).
pKi: −log10 of the molar value.

Target: T1, Dimer of Gag-Pol polyprotein [489-587] (Human immunodeficiency virus 1, UniProt P12497)
T1 construct: 489-587
Experiment: Protease Inhibition Assay
Details: pH 5; 22 °C
Excerpt: HIV-1 protease was purified and refolded from E. coli inclusion bodies. […] In the presence of HIV-l protease, the substrate is rapidly cleaved into two parts. The biotinylated amino terminal fragment binds to the avidin beads while the FITC-containing carboxy1 terminal fragment is removed through the membrane. […] The bound fluorescence is obtained by processing on an IDEXX Screen Machine. Determination of Ki values with this assay requires analysis under conditions in which substrate concentration resides substantially below Km and the inhibitor concentrations greatly exceeds the Ki value and the enzyme concentration.

Question: O=c1oc2c(c(O)c1[C@H](c1cccc(NS(=O)(=O)c3ccccc3)c1)C1CC1)CCCCCC2 [N-{3-[(S)-cyclopropyl({4-hydroxy-2-oxo-2H,5H,6H,7H,8H,9H,10H-cycloocta[b]pyran-3-yl})methyl]phenyl}benzenesulfonamide] was tested. Which pKi did it give?
Answer: Its pKi is 8.52.
